For the assay, the target named is RNA demethylase ALKBH5 (Homo sapiens, UniProt Q6P6C2). Kind of assay: Inhibition of ALKBH5 demethylase activity (unknown origin) assessed as increase in methylated 6A-RNA level incubated for 2 hrs by colorimetric analysis.
Chain of RNA demethylase ALKBH5 (Q6P6C2 whole entry): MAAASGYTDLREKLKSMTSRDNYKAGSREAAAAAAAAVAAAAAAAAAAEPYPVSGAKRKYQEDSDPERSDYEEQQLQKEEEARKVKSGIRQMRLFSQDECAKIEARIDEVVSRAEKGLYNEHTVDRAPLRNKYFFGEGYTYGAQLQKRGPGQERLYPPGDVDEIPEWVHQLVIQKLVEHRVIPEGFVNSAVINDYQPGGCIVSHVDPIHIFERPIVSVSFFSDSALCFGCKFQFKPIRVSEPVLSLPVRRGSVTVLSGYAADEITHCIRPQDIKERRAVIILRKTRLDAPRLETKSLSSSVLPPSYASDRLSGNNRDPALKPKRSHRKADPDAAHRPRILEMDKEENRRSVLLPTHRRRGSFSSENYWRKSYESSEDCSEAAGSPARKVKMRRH

On to `O=C(O)CSC(O)C(=O)c1ccccc1` (stereo unspecified), for which the IC50 came out at 840 nM.

One may read the IC50 as the concentration at which inhibition is half-maximal.

For the origin of these results see ChEMBL document CHEMBL4706755, “Novel Small Molecule RNA m6A Demethylase AlkBH5 Inhibitors for Treating Cancer” (ACS Med Chem Lett, 2021).
